From publication PMC10069031 (European Journal of Medical Research, 2023)

What was measured:
Format in all cases: in vivo, mouse
CT26 tumors = experiment: Growth of subcutaneous CT26 tumors in BALB/c mice; details: CRC tumors in mice
Procedure: CT26 tumor cells were cultivated in RPMI 1640 with 2 mM L-glutamine (Gibco, Invitrogen GmbH) containing 10% fetal bovine serum (Gibco) at 37 °C and 5% CO2. Cell lines were maintained in culture for no longer than 6 months, and mycoplasma contamination was excluded by enzymatic test (MycoAlert, Lonza) prior to in vivo application. Tumor cells (2 × 10^6) were transplanted subcutaneously into 6- to 8-week-old female BALB/c mice. Control mice were subjected to sham surgery without tumor cell transplantation. Blood and tumor samples were collected from untreated control and tumor-bearing mice on days 4 and 8 (n = 3 mice/group). […] Tumor diameter was measured by caliper and body weight was determined at least twice weekly. Tumor volume was calculated using the formula 0.5 × a × b^2, where a and b are the long and short diameters of the tumor, respectively.
(§1) For tissue collection, mice were killed at predetermined time points. […] Tumors were removed, and their weights determined, then divided into three pieces, one of which was snap-frozen, one formalin fixed and paraffin embedded, and one weighed and used for FC analyses. […]
An overall comparison between treatment groups of the endpoints measured on CT26 and MC38 mice after they had been killed was performed using different statistical models. […]

CCL2 [1] = experiment: CCL2 ELISA in CT26 tumor tissue; details: CT26 tumors
Procedure: CT26 tumor cells were cultivated in RPMI 1640 with 2 mM L-glutamine (Gibco, Invitrogen GmbH) containing 10% fetal bovine serum (Gibco) at 37 °C and 5% CO2. Cell lines were maintained in culture for no longer than 6 months, and mycoplasma contamination was excluded by enzymatic test (MycoAlert, Lonza) prior to in vivo application. Tumor cells (2 × 10^6) were transplanted subcutaneously into 6- to 8-week-old female BALB/c mice. Control mice were subjected to sham surgery without tumor cell transplantation. Blood and tumor samples were collected from untreated control and tumor-bearing mice on days 4 and 8 (n = 3 mice/group). […] For interim analysis, blood and tumor tissue were collected from each group (n = 3 mice/group) after 7 days of treatment. […] Tumor diameter was measured by caliper and body weight was determined at least twice weekly. Tumor volume was calculated using the formula 0.5 × a × b^2, where a and b are the long and short diameters of the tumor, respectively.
as §1

CD115^hi cells in blood = experiment: CD115^hi cells in blood, MC38 study; details: C57BL/6 mice with subcutaneous MC38 CRC tumors
Procedure: (§2) For tumors, single-cell suspensions were prepared from the fresh tumor pieces using a mouse Tumor Dissociation Kit (Miltenyi Biotec). The final cell pellets were resuspended in 1 mL FC buffer (PBS with 2 mM EDTA, 0.5% bovine serum albumin). Then, 100 µL of the tumor single-cell suspensions and the EDTA blood samples were stained by addition of the antibody cocktail and incubated for 10 min at 4 °C according to the manufacturer’s instructions. After antibody incubation, blood samples were incubated with 2–3 mL lysis buffer (0.17 M NH4Cl, 10 mM KHCO3, 0.1 mM EDTA) for 10–20 min at RT to lyse and remove red blood cells. Subsequently, samples were centrifuged at 300 g for 5 min at 4 °C and cells were washed with 2–3 mL FC buffer. Tumor samples were washed immediately after antibody incubation with 2–3 mL FC buffer without the lysis procedure and centrifuged at 300 g for 5 min at 4 °C. […] Next, 50 µL of blood and 70 µL of tumor cell suspensions were analyzed by FC using MACSQuant Analyzer 10 and MACSQuant Analyzer 16 (Miltenyi Biotec). FC data were analyzed with the FlowLogic software (Inivai Technologies distributed through Miltenyi Biotec; version 7.2.1) and gated as shown in Fig. S1 (see Additional file 2), whereby up to seven subpopulations were identified in the CD45^+ fraction using antibodies against F4/80 and CD115. […]

CCL2 [2] = experiment: CCL2 in blood, MC38 study; details: C57BL/6 mice with subcutaneous MC38 CRC tumors
Procedure: CCL2 was detected in plasma samples and tumor tissue using the U-Plex mouse MCP-1 ELISA Kit (Meso Scale Diagnostics) according to the manufacturer’s instructions. Measurements were performed at least in duplicate. For plasma, 12.5 µL was analyzed per animal.
Five analysis of variance (ANOVA) models were applied to analyze the log10-transformed values of the tumor weight in the CT26 study, the CCL2 levels in the tumor in the CT26 and MC38 studies, and the CCL2 levels in the PB in the CT26 and MC38 studies. The standard assumption of equal variances between treatment groups was applied for all endpoints, except for CCL2 levels in the tumor in the MC38 study, for which unequal variances between treatment groups were allowed. A negative binomial regression model was applied to evaluate percentages of CD115^hi and F4/80^hi cells within the CD45^+ cell population in PB and tumor tissue, respectively.
In vivo passaging was initiated by transplanting fragments of cryo-preserved MC38 tumors of early passages (<p5) subcutaneously into 6–8-week-old female C57BL/6 mice. Tumors were grown to a size of about 1000 mm^3, excised, cut into fragments edging approximately 2 mm, and used for further passaging in vivo for a maximum of 10 passages. Necrotic areas were removed. […]

F4/80^hi population = experiment: F4/80^hi cells in MC38 tumors; details: even at 5 mg/kg/day
Procedure: as §2

## CNC(=O)c1cc(Oc2ccc(NC(=O)Nc3ccc(Cl)c(C(F)(F)F)c3)c(F)c2)ccn1 [REG, Regorafenib]
CT26 tumors
  partial or complete remission: did not induce partial or complete remission
  tumor growth vs vehicle: significantly inhibited
CCL2 [1]
  CCL2 concentrations in tumor lysates vs vehicle controls: a trend toward higher levels
CD115^hi cells in blood
  number of CD115^hi cells in the blood: reduced
CCL2 [2]
  CCL2 levels in blood: without affecting
F4/80^hi population
  reduction of the F4/80^hi population vs vehicle: more than twofold
